Experimental data published in patent US20060276339A1, “Methods and compositions for increasing the efficacy of biologically-active ingredients” (priority 2002, published 2006).
Converted amounts (≈) assume the structure as drawn.

Key:
YMR4 yeast [1] = assay: Yeast drug selection growth assay, phosphatase deficient mutant; assay type: cell-based, Saccharomyces cerevisiae
Description: (§1) Expression of AtPGP-1 in yeast: The AtPGP-1 cDNA (Arabidopsis thaliana MDR gene, accession #X61370) was subcloned into pVT101 downstream of the ADH promoter to create the AtPGP-1/pVT101 construct. AtPGP-1/pVT101 and pVT101 were transformed into Saccharomyces cerevisiae INVSCI (genotype: MATa, his3-Δ1, leu2, trpl-289, ura3-52) and YMR4 (genotype: MATαhis3-11,15, leu2-3, 112ura3Δ5, can Res pho5, 3::ura3A1) by a PEG lithium acetate procedure (Eble, 1992) and selected on uracil dropout medium.
(§2) Yeast Growth: Yeast were grown at 30° C. under conditions of constant selection for uracil auxotrophy. YNB (Bio101, Vista, Calif.) supplemented with CSM (uracil dropout) and 2% glucose was used to grow strains having pVT101 constructs. Cycloheximide (Sigma Chemical, St. Louis, Mo.) was added to liquid media or spread on solid media to achieve a final concentration of 500 ng/ml. Nigencm (Sigma Chemical, St. Louis, Mo.) was added to liquid media or spread on solid media to achieve a final concentration of 25 μg/ml. Yeast strains used in cycloheximide selection assays were always propagated in the presence of the cycloheximide on plates and then streaked onto new plates containing drug or no drug, such that induced resistance existed in each strain at the time of the start of the assay. […] Yeast selection assays in liquid media were quantitated by turbidity as measured by absorbance at OD600.

[2] = tested on: wild-type Arabidopsis thaliana plants; assay: Arabidopsis germination selection assay, wild-type plants; assay type: in vivo; settings: cycloheximide 500 ng/ml, phosphatase inhibitor 1 mM, 10-20 days
Procedure: Plant growth: Arabidopsis thaliana seeds were sown in a solid germination media containing MS salt, 2% sucrose, 0.8% agar, and vitamins (Valvekens et al., 1992). For selection assays, cycloheximide was spread on the media to achieve a final concentration of […]. Plant growth was measured by germination percentage after 6-30 days.
(§3) Plant Growth: Arabidopsis seeds were sown in a solid germination media containing MS salts (Sigma Chemical, St. Louis, Mo.), 2% sucrose, 0.8% agar, and vitamins (Valvekens et al., 1992). For selection assays, one of the following, or a combination of both, was added to media (cooled to less than 50° C. before adding) immediately prior to pouring into plates: cycloheximide at a final concentration of 500 ng/ml; α,β-methyleneadenosine 5′-diphosphate at a final concentration of 1 mM. Plant growth was measured by germination percentage after 10-20 days.
All other materials and methods were discussed above in Example 4.

INVSCI yeast = assay: Yeast drug selection growth assay, wild-type strain; assay type: cell-based, Saccharomyces cerevisiae; settings: cycloheximide 500 ng/ml
Description: as §1, §2

[3] = tested on: AtPGP-1 overexpressing (MDR OE) Arabidopsis thaliana plants; assay type: in vivo; settings: AtPGP-1 overexpressing plants; cycloheximide 500 ng/ml, phosphatase inhibitor 1 mM; 10-20 days
Description: Similar methods were employed to express AtPGP-1 in Arabidopsis thaliana plants with the following modifications. […] This plasmid was then transformed into A. tumefaciens as described above, which was used to infect root calli to produce transgenic plants expressing AtPGP-1.
as §3

[4] = tested on: S. cerevisiae yeast cells (YMR4, INVSC); assay: Yeast growth in suspension with ATP and drug (turbidity); assay type: cell-based, Saccharomyces cerevisiae; settings: 100 mM ATP, 48 hours
Procedure: Cell lines: Cell lines were the same as those described above in Example 4 and 5. YMR4 MDRI is the phosphatase mutant yeast strain overexpressing AtPGP-1; YMR4 pVT011 contains vector alone; INVSC MDRI is the wild-type yeast strain overexpressing AtPGP-1; and INVSC pVT101 contains vector alone.
Selection in drug: To create drug resistant yeast strains, all four cell lines were grown up in the presence of 500 ng/ml of cycloheximide, and transferred to other cycloheximide containing plates after a period of four to six days. This transfer of cell lines and subculturing continued such that the yeast cells grew in the presence of cycloheximide for a period of at least a month. Cells cultured in media alone: To create cell lines that had not been preselected for their ability to grow in drug, yeast strains were grown on plates containing YNB (Bio101, Vista, Calif.) without uracil (-URA) to maintain the presence of the vector (which supplies URA) without any drugs added.
Growth of cells in suspension for ATP and drug selection experiments: Cells were transferred into 5 ml YNB-URA liquid media for turbidity measurements. All cell lines (both non-drug selected and drug-selected) were grown in media with the addition of either nothing, 500 ng/ml cycloheximide, 100 mM ATP, or 500 ng/ml cycloheximide and 100 mM ATP. Turbidity readings were taken after 48 hours.

YMR4 yeast [5] = assay: Yeast growth in suspension, adenosine salvage pathway experiments (turbidity); assay type: cell-based, Saccharomyces cerevisiae; settings: added to media with cycloheximide, 72 hours
Procedure: Selection in drug: To create drug resistant yeast strains, all four cell lines were grown up in the presence of 500 ng/ml of cycloheximide, and transferred to other cycloheximide containing plates after a period of four to six days. This transfer of cell lines and subculturing continued such that the yeast cells grew in the presence of cycloheximide for a period of at least a month.
Growth of cell lines in suspension for salvage pathway experiments: All cell lines were grown in liquid media either containing drug (for the drug selected lines) or not containing drug (for the non-drug selected lines). When the cultures reached a turbidity of 1.00 as measured at a wavelength of 600 in a spectrophotometer (OD600=1.00), 10 μl of each culture was then removed and placed in either media with nothing added, 3 mM potassium phosphate; 3 mM adenosine; 9 mM potassium phosphate and 3 mM adenosine (for controls); potassium phosphate and cycloheximide; adenosine and cycloheximide; adenosine, cycloheximide, and potassium phosphate. Cell cultures were further grown for 72 hours, and their turbidity was determined by OD600 readings on a spectrophotometer.

[6] = tested on: ectoapyrase activity associated with the plasma membrane of cholinergic nerve terminal of Torpedo mannorata electric organs; settings: Torpedo electric organ nerve terminal plasma membrane; cited from earlier work
SW-13 = assay: IC50 test (NTT), 96 well plate, vinblastine sensitive parent line; assay type: cell-based; settings: Homo sapiens, SW13, 96 h, read-out: IC50 (sensitive at)
Procedure: (§4) In order to determine the effect of ectophosphatase inhibitors on tumor cells resistant to a chemotherapeutic agent, 2 […] tumor cell lines were tested, a vinblastine resistant line (SW-13Vb003) and its vinblastine sensitive parent line, SW-13. A standard 4 day incubation at 37° C. and 5% CO2 was used. IC50 tests (NTT) were done using standard methodology in 96 well plate format with inhibitor concentrations ranging from 0-90 μg/ml (DMEM media). […] For NGXT194, SW-13 was sensitive at 20 μg/ml, whereas the vinblastine resistant line SW-13Vb003 was sensitive at 10 μg/ml. For NGXT196, SW-13 was sensitive at 30 μg/ml, whereas the vinblastine resistant line SW-13Vb003 was sensitive at 10 μg/ml. For NGXT1915, SW-13 was sensitive at 50 μg/ml, whereas the vinblastine resistant line SW-13Vb003 was sensitive at 20 μg/ml.

SW-13Vb003 = assay: IC50 test (NTT), 96 well plate, vinblastine resistant line; assay type: cell-based; settings: 96 h, read-out: IC50 (sensitive at)
Procedure: as §4

SMILES: C[C@@H]1C[C@@H]([C@H](O)CC2CC(=O)NC(=O)C2)C(=O)[C@@H](C)C1 [cycloheximide]
- yeast growth in drug (YMR4 yeast [1]; YMR4 mutant, cycloheximide 500 ng/ml): did not grow
- germination rate [2]: 2%
- yeast growth in drug (INVSCI yeast): did grow
- germination rate [3]: 50%

SMILES: Nc1ncnc2c1ncn2[C@@H]1O[C@H](COP(=O)(O)OP(=O)(O)OP(=O)(O)O)[C@@H](O)[C@H]1O [ATP]
- yeast growth in high levels of ATP ([4]; cells not previously selected in drug): able to grow
- yeast growth in high levels of ATP ([4]; cells previously grown in drug (resistant), not overexpressing AtPGP-1): not able to grow

SMILES: O=P(O)(O)O [phosphate, potassium phosphate]
- effect on resistance of yeast cells to cycloheximide (YMR4 yeast [5]): did not enhance resistance

SMILES: CO[C@@H]1C[C@@H](C[C@H]2CC[C@H](C)[C@H]([C@@H](C)C(=O)O)O2)O[C@]2(O[C@](C)([C@H]3CC[C@@](C)([C@@H]4O[C@@H]([C@H]5O[C@@](O)(CO)[C@H](C)C[C@@H]5C)C[C@@H]4C)O3)C[C@H]2C)[C@@H]1C [nigericin]
- yeast growth in drug (YMR4 yeast [1]; YMR4 containing vector alone, nigericin 25 μg/ml): reduced growth

SMILES: Cc1ccc(C(=O)Nc2ccc(S(=O)(=O)O)c3cc(S(=O)(=O)O)cc(S(=O)(=O)O)c23)cc1NC(=O)c1cccc(NC(=O)Nc2cccc(C(=O)Nc3cc(C(=O)Nc4ccc(S(=O)(=O)O)c5cc(S(=O)(=O)O)cc(S(=O)(=O)O)c45)ccc3C)c2)c1 [Suramin, 8,8′[Carbonylbis[imino-3,1-phenylenecarbonylimino(4-methyl-3,1-phenylene)carbonylimino]]bis-1,3,5-naphthalenetrisulfonic acid]
- inhibition of ectoapyrase activity [6]: potent non-competitive inhibitor

SMILES: O=C(Cc1cccc2ccccc12)N/N=C/c1ccc(Br)cc1 [NGXT196]
- IC50 (SW-13): 30 µg/mL (≈ 81.7 µM)
- IC50 (SW-13Vb003): 10 µg/mL (≈ 27.2 µM)

SMILES: Cc1ccc(O)c(/C=N/NC(=O)Cc2cccc3ccccc23)c1 [NGXT194]
- IC50 (SW-13): 20 µg/mL (≈ 62.8 µM)
- IC50 (SW-13Vb003): 10 µg/mL (≈ 31.4 µM)

SMILES: C/C(=N\NC(=O)c1cccc(C)c1)c1ccc2ccccc2c1 [NGXT1915]
- IC50 (SW-13): 50 µg/mL (≈ 165 µM)
- IC50 (SW-13Vb003): 20 µg/mL (≈ 66.1 µM)

SMILES: Nc1ncnc2c1ncn2[C@@H]1O[C@H](COP(=O)(O)CP(=O)(O)O)[C@@H](O)[C@H]1O [phosphatase inhibitor, α,β-methyleneadenosine 5′-diphosphate]
- germination rate [2]: 90%
- germination rate [3]: 83%

SMILES: Nc1ncnc2c1ncn2[C@@H]1O[C@H](CO)[C@@H](O)[C@H]1O [adenosine]
- effect on resistance of yeast cells to cycloheximide (YMR4 yeast [5]): did not enhance resistance
